The text below walks through data of patent US20230024302A1, “2,3,5-TRISUBSTITUTED PYRAZOLO[1,5-A]PYRIMIDINE COMPOUNDS” (Arcus Biosciences, Inc., priority 2019, published 2023).

The term IC50 denotes the point on the concentration scale where inhibition reaches its midpoint.

Where two headings read alike, the source gives them in different places.

For one test, the target named is T1, PI3Kγ (p120γ) (Homo sapiens, UniProt P48736).
T1 construct: purchased Promega V1761
In words: Inhibition of PI3K kinase activity (ADP Glo), PI3Kγ. The following applies: read-out: biochemical potency (PI3Kγ IC50). A digest of the protocol:
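IC50 values come from a 4-parameter nonlinear fit of ADP-Glo luminescence, which measures ADP produced as PIP2 is phosphorylated to PIP3. The p120γ enzyme (2× stock 8 nM) sat with compound 1 h at rt before substrate (2× stocks: 50 μM ATP, 0.1 mg/ml PIP2) was added. Phosphorylation then proceeded 60 min at rt.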
In general terms: ADP-Glo first removes unused ATP, then detects ADP through luciferase.

A further test has as its target T2, PI3Kγ (Homo sapiens, UniProt P48736).
T2 construct: host or cells: THP-1
The experiment in a line: PI3Kγ cellular assay in THP-1 cells (AKT pS473 AlphaLISA). Format: cell-based. A digest of the protocol: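 Endogenous AKT S473 phosphorylation, detected by AlphaLISA in lysates, serves as the PI3Kγ activity read-out in stimulated, serum-starved THP-1 cells (1.8×10^5/well).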
(In general: Alpha assays give light when donor and acceptor beads are brought close together.)

Setting [1] is: Table 6, rhMCP-1 stimulated AKT pS473, read-out: cellular potency (PI3Kγ IC50).
Setting [2] is: Table 2, rhMCP-1 stimulated AKT pS473, read-out: cellular potency (PI3Kγ IC50).
[3] abbreviates: Table 1, rhMCP-1 stimulated AKT pS473, read-out: cellular potency (PI3Kγ IC50).

T2 sequence (P48736 whole entry): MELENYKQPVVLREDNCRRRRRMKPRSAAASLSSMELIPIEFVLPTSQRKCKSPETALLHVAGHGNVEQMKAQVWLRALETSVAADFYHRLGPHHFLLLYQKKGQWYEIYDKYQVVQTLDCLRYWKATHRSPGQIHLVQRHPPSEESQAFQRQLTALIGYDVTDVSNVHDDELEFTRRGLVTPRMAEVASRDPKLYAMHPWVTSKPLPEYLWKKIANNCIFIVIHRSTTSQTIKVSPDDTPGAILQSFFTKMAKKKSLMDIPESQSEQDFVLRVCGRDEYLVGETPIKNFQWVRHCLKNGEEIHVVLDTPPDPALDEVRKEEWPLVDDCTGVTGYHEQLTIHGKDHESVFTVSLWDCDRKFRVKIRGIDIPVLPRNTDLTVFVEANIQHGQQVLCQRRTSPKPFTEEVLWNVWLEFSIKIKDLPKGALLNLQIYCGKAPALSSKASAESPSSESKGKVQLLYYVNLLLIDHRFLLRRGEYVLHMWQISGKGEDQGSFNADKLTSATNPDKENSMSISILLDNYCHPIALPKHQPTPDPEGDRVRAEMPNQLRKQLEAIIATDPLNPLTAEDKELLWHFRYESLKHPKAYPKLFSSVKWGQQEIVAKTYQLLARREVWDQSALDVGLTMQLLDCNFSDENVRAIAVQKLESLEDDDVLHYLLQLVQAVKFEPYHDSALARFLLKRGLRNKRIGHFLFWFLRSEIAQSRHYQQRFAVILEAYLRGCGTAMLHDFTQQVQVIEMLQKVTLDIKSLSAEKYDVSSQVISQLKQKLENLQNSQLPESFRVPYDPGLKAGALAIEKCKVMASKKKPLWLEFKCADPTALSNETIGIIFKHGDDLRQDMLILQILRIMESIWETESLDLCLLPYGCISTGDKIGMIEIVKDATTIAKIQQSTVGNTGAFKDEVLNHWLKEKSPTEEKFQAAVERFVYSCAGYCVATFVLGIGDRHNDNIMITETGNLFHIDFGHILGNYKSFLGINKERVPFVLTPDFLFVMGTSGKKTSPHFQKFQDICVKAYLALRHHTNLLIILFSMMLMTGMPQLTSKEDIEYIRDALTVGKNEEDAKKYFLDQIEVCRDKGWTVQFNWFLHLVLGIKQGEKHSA
T1 sequence (P48736 whole entry): as above

Consider `C[C@@H](C1CC1)N1Cc2cc(-c3ccn4nc(N)c(C(=O)Nc5ccccc5)c4n3)cc(OC(F)(F)F)c2C1=O` [Example 427], for which the IC50 on PI3Kγ (p120γ) (Table 6, p120γ) is less than 0.1 µM; at PI3Kγ (setting [1]) it was greater than 1 µM.

As to `Cc1cc(-c2ccn3nc(N)c(C(=O)NC4CCOCC4)c3n2)cc2c1C(=O)N([C@@H](C)C1CC1)C2` [Example 181], the IC50 at PI3Kγ (p120γ) (Table 2, p120γ) was less than 0.1 µM; at PI3Kγ (setting [2]), 0.1 to 1 µM.

In the case of `C[C@@H](C1CC1)N1Cc2cc(-c3ccn4nc(N)c(C(=O)N[C@H]5CNC[C@H]5O)c4n3)cc(OC(F)(F)F)c2C1=O` [Example 417], the IC50 was less than 0.1 µM at PI3Kγ (p120γ) (Table 6, p120γ) and greater than 1 µM on PI3Kγ (setting [1]).

With `Cc1cc(-c2ccn3nc(N)c(C(=O)NC4CC4)c3n2)cc2c1C(=O)N([C@H](C)c1ccncc1)C2` [Example 331], the IC50 is less than 0.1 µM at PI3Kγ (p120γ) (Table 2, p120γ) and greater than 1 µM on PI3Kγ (setting [2]).

`Cc1cc(-c2ccn3nc(N)c(C(=O)NC4CC4(C)C)c3n2)cc2c1C(=O)N([C@@H](C)C1CC1)C2` (some centres unmarked) [Example 249]: the IC50 is less than 0.1 µM at PI3Kγ (p120γ) (Table 2, p120γ) and 0.1 to 1 µM on PI3Kγ (setting [2]).

Consider `C[C@H](N1Cc2cc(-c3ccn4nc(N)c(C(=O)NC5CC5)c4n3)cc(N3CC[C@@H](O)C3)c2C1=O)C(F)(F)F` [Example 431], for which the IC50 is less than 0.1 µM on PI3Kγ (p120γ) (Table 6, p120γ) and 0.1 to 1 µM on PI3Kγ (setting [1]).

Consider `C[C@@H](C1CC1)N1Cc2cc(-c3ccn4nc(N)c(C(=O)Nc5ccc(Cl)cc5)c4n3)cc(NS(C)(=O)=O)c2C1=O` [Example 392], for which the IC50 at PI3Kγ (p120γ) was less than 0.1 µM; on PI3Kγ (AKT pS473, read-out: cellular potency (PI3Kγ IC50)) it was greater than 1 µM.

For `Cc1cc(-c2ccn3nc(N)c(C(=O)N[C@H]4C[C@H](C(C)(C)O)C4)c3n2)cc2c1C(=O)N([C@@H](C)C1CC1)C2` [Example 14, 2-Amino-5-{2-[(1S)-1-cyclopropylethyl]-7-methyl-1-oxo-2,3-dihydro-1H-isoindol-5-yl}-N-[trans-3-(2-hydroxypropan-2-yl)cyclobutyl]pyrazolo[1,5-a]pyrimidine-3-carboxamide], the IC50 is less than 0.1 µM on PI3Kγ (p120γ) (Table 1, p120γ) and less than 0.1 µM at PI3Kγ (setting [3]).

As to `Cc1cc(-c2ccn3nc(N)c(C(=O)NC4CC4)c3n2)cc2c1C(=O)N([C@@H]1CCC[C@H](O)C1)C2` [Example 324], the IC50 at PI3Kγ (p120γ) (Table 2, p120γ) is less than 0.1 µM; on PI3Kγ (setting [2]), 0.1 to 1 µM.

`CO[C@H]1C[C@H](NC(=O)c2c(N)nn3ccc(-c4cc(C)c5c(c4)CN([C@@H](C)C4CC4)C5=O)nc23)C1` [Example 182]: the IC50 at PI3Kγ (p120γ) (Table 2, p120γ) was less than 0.1 µM; at PI3Kγ (setting [2]), 0.1 to 1 µM.

With `C[C@@H](C1CC1)N1Cc2cc(-c3ccn4nc(N)c(C(=O)Nc5ccccc5)c4n3)cc(NS(C)(=O)=O)c2C1=O` [Example 104, (S)-2-Amino-5-(2-(1-cyclopropylethyl)-7-(methylsulfonamido)-1-oxoisoindolin-5-yl)-N-phenylpyrazolo[1,5-a]pyrimidine-3-carboxamide], the IC50 on PI3Kγ (p120γ) (Table 1, p120γ) is less than 0.1 µM; on PI3Kγ (setting [3]), less than 0.1 µM.

On to `CNS(=O)(=O)c1cc(-c2ccn3nc(N)c(C(=O)NC4CC4)c3n2)cc2c1C(=O)N([C@@H](C)C1CC1)C2` [Example 142, 2-Amino-N-cyclopropyl-5-{2-[(1S)-1-cyclopropylethyl]-7-(methylsulfamoyl)-1-oxo-2,3-dihydro-1H-isoindol-5-yl}pyrazolo[1,5-a]pyrimidine-3-carboxamide], for which the IC50 was less than 0.1 µM at PI3Kγ (p120γ) (Table 1, p120γ) and less than 0.1 µM at PI3Kγ (setting [3]).

Consider `C[C@@H](C1CC1)N1Cc2cc(-c3ccn4nc(N)c(C(=O)NC5CC5)c4n3)cc(S(=O)(=O)C3CCCCC3)c2C1=O` [Example 138, 2-Amino-5-[7-(cyclohexanesulfonyl)-2-[(1S)-1-cyclopropylethyl]-1-oxo-2,3-dihydro-1H-isoindol-5-yl]-N-cyclopropylpyrazolo[1,5-a]pyrimidine-3-carboxamide], for which the IC50 at PI3Kγ (p120γ) (Table 1, p120γ) is less than 0.1 µM; at PI3Kγ (setting [3]), less than 0.1 µM.
